Assay results reported in patent publication US6420372B1, “Febrifugine, isofebrifugine and method for producing the same” (Japan Science and Technology Corporation, priority 1999, dated 2002).
pEC50: −log10 of the molar value. Read-outs that look alike come from different tables or passages of the source.

How the values were obtained:
[1] = system: P. falciparum FCR-3 strain (ATCC 30932); assay: Screening of malarial protozoan growth inhibition (culture assay); assay type: cell-based; conditions: for pEC50: Plasmodium falciparum, Erythrocyte, read-out: P. falciparum EC50; for Ratio of Selective Toxicity for Malarial Protozoan <chemotherapeutic coefficient>: [EC50 for mouse FM3A cell]/[EC50 for tropical fever malarial protozoan]; for malarial protozoan growth inhibiting activity (in words): summary of Table 1
Procedure: In this experiment, P. falciparum FCR-3 strain (ATCC 30932) was employed as the tropical fever malarial protozoan. In order to verify the effect of the commercially available anti-malarial agent chloroquin on resistant strains, a chloroquin resistant malarial protozoan of the P. falciparum K1 strain was employed. The medium used in this experiment was a filter-sterilized RPMI1640 medium which was adjusted to pH 7.4 and supplemented with 10% human serum. The malarial protozoan was cultured under 5% O2, 4% CO2 and […] at 36.5° C. The hematocrit level (% volume of erythrocyte in erythrocyte suspension) was adjusted to 5% for use. The initial infection rate with the tropical fever malarial protozoan at the beginning of the cultivation was 0.1%. The cultivation was performed using a 24-well cultivation plate, replacing the culture medium everyday, and subcultured at an infection rate of 4%. The infection rate was obtained by making a thin layer smear preparation, which was subjected to Giemsa staining or Diff-Qick staining, and observed microscopically (immersed in oil, magnified to ×1000) after which the malarial protozoan infection rate was determined using the following equation.
Malarial protozoan infection rate=[(number of infected erythrocyte)/(total number of erythrocyte)]×100 The cultured malarial protozoan-infected erythrocyte was collected by centrifugation, and washed with a serum-supplemented medium, after which a non-infected erythrocyte was added to adjust the initial infection rate to 0.3%. At this time, the hematocrit rate was 3%. The sample used in the test was obtained by dissolving in sterilized water, dimethylformamide (DMF), or dimethylsulfoxide (DMSO) to create samples of desired concentration.
5 to 10 μl of the sample were added to a 24-well cultivation plate. The samples were tested in duplicates or triplicates. As a control, 10 μl/well of sterilized water, DMF or DMSO was employed.
Subsequently, to the above medium, 990 to 995 μl of the tropical fever malarial protozoan culture medium previously prepared were added by gentle pipetting to create a uniform suspension. The culture plate was incubated for 72 hours in a CO2—O2—N2 (5%, 5%, 90%) incubator, after which thin layer smear preparations of each well was made, stained, and observed microscopically, to determine the infection rate together with the infection rate for the control.
From the malarial protozoan infection rate obtained by the method described above, the reproductive rate was calculated, whereby obtaining the 50% growth inhibition concentration (EC50) for malarial protozoan.
Reproductive rate={([b]−[a])/([c]−[a])}×100 a: initial infection rate b: infection rate with sample added c: infection rate without sample (Control)

[2] = system: mouse breast cancer FM3A cells (F28-7 strain); assay: Mouse FM3A cell growth inhibition test; assay type: cell-based; conditions: read-out: FM3A EC50
Procedure: An F28-7 strain, a wild cell strain derived from mouse breast cancer FM3A cells was employed. A medium was prepared by supplementing an ES medium with 2% inactivated fetal calf serum, and incubated at 37° C. under 5% CO2. Under these conditions, the doubling time of the FM3A cell was about 12 hours.
Following preincubation, the cells in logarithmic growth phase were diluted with the medium to 5×10^4 cells/ml. The sample used was one prepared for the anti-malarial activity test of the malaria protozoan. 5 to 10 μl of the samples were added to a 24-well cultivation plate (final concentration after addition of medium was 1×10^−4 to 1×10^−6). The compounds were tested in duplicates or triplicates, and wells containing 10 μl of sterilized water, DMF or DMSO were also prepared as a control. Subsequently, 990 to 995 μl of the cultured cell suspension previously prepared were added by gentle pipetting, and uniformly suspended in the medium. After incubating for 48 hours, the number of cells in each well was counted using SELF CONTROLLER (CC-108, Toa Medical Electrics) and the reproductive rate was calculated by using the following equation.
Reproductive rate (%)={([C]−[A])/([B]−[A])}×100
A: initial number of cells
B: number of control cell after 48 hours
C: number of cells after 48 hours from sample addition
The cell growth inhibition activity was calculated from the number of cells in the well containing the sample and the number of cells in the control. From the results thus obtained, the cytotoxicity of each sample was evaluated and represented as the cell growth inhibition concentration (EC50). The EC50 value is the concentration (expressed as molar concentration) of a sample necessary to inhibit the reproductive rate of the control by 50%, wherein the reproductive rate or the rate of malarial protozoan infection for the control in which samples are not added to the medium of malarial protozoan or FM3A cell, is regarded as 100%.

| Structure (SMILES) | pEC50 ([1]; 50% growth inhibition concentration, infected erythrocytes, 72 hours incubation, infection rate by stained smear) | Ratio of Selective Toxicity for Malarial Protozoan <chemotherapeutic coefficient> [1] | malarial protozoan growth inhibiting activity (in words) [1] | pEC50 ([2]; cell growth inhibition concentration (cytotoxicity), 48 hours incubation, cell count) | pEC50 ([1]; 72 h) | pEC50 ([2]; 48 h) |
| --- | --- | --- | --- | --- | --- | --- |
| O=c1c2ccccc2ncn1CC1(O)C[C@@H]2NCCC[C@@H]2O1 (stereo partly drawn) [B, (2′S, 3′S)-isofebrifugine] | 10.12 | 2895 | selective malarial protozoan growth inhibiting activity | 6.66 | – | – |
| O=C(C[C@H]1NCCC[C@@H]1O)Cn1cnc2ccccc2c1=O [A, (2′R, 3′S)-febrifugine] | – | 2667 | selective malarial protozoan growth inhibiting activity | – | 9.52 | 6.10 |
| O=c1c2ccccc2ncn1CC1(O)C[C@@H]2NCCC[C@H]2O1 (some centres unmarked) [Formula B0, reference compound] | – | 110 | – | – | 6.70 | 4.66 |
| O=C(C[C@@H]1NCCC[C@H]1O)Cn1cnc2ccccc2c1=O [Formula A0, reference compound] | – | 105 | – | – | 6.72 | 4.70 |
